Test results from article PMC3880581 (Nature, 2012).

Biological target: AtCHI (Arabidopsis thaliana, UniProt P41088)
Settings: cyclization of the chalcone; constant not given

Sequence of AtCHI (P41088 whole entry): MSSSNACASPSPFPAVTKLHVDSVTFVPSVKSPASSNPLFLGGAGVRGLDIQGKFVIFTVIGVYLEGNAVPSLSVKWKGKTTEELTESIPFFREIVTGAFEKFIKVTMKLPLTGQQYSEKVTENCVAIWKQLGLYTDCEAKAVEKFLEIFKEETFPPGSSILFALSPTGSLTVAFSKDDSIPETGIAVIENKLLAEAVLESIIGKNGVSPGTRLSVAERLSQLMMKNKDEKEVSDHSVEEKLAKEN

## O=C1C[C@@H](c2ccc(O)cc2)Oc2cc(O)cc(O)c21 [(2S)-naringenin]
  CHI activity assay: AtCHI catalyzes the in vitro formation of (2S)-naringenin
